# In patent US20260374766A1, “METHODS FOR TREATING CANCER” (Antares Therapeutics, Inc., priority 2022, published 2026):
# pIC50, pKd: −log10 of the molar value. Where two headings read alike, the source gives them in different places.
# Assays:
# [1] = target: T1, p53 Y220C mutant protein (amino acid residues 94-293) (Homo sapiens, UniProt P04637, Y220C); experiment: Thermal Shift Assay (TSA), dTM; type: binding; conditions: for ΔTm at 10 µM: 10 uM compound; for ΔTm at 100 µM: 100 uM compound
# T1 construct: p53 Y220C mutant protein (amino acid residues 94-293)
# Summary of the method: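 Sypro Orange melt (30→50 °C, 0.03 °C/s) with TM taken from a Boltzmann two-state fit. Protein (residues 94-293) at 5 μM was pre-incubated 3 h at 20 °C with compound at 10 μM or 100 μM in pH 7.4 HEPES/NaCl buffer containing 0.01% Pluronic F-127 and 1% DMSO.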
# NUGC3 p53 Y220C = experiment: Cell Proliferation Assay (CellTiter-Glo, CTG), NUGC3 p53 Y220C; type: cell-based; conditions: Homo sapiens, NUGC-3, 120 h, CellTiter-Glo, 5 days
# Summary of the method: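 Tet-One inducible p53 Y220C or R273H constructs were stably introduced into NCI-H1299 by lentiviral transduction; NUGC3 was used as is. Cells (250-500 per well) were exposed to compound for 5 days, then CellTiter-Glo was added for 10 min at room temperature and IC50 was calculated from luminescence.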
# H1299 p53 Y220C = experiment: Cell Proliferation Assay (CellTiter-Glo, CTG), H1299 p53 Y220C (NClH1299-inducible p53 Y220C); type: cell-based; conditions: Homo sapiens, NCI-H1299, 120 h, CellTiter-Glo, 5 days
# Summary of the method: (§1)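 NClH1299 lines stably transduced with Tet-inducible p53 Y220C or R273H, plus NUGC3, were treated with compound for 5 days at 250-500 cells/well. IC50 derived from CellTiter-Glo luminescent signal after 10 min room-temperature incubation.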
# [2] = target: T1, p53 Y220C mutant protein (amino acid residues 94-293); experiment: Surface Plasmon Resonance (SPR) assay, Kd_kinetic; type: binding; conditions: read-out: SPR P53 Y220C KD kinetic
# Summary of the method: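 Biacore 8K SPR; 16 or 20 °C; Tris 50 mM pH 7.5, NaCl 100 mM, DTT 1 mM, Brij35 0.01%, Tween-20 0.05%, DMSO 1%. Kd_kinetic by 1:1 fit.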
# H1299 p53 R273H = experiment: Cell Proliferation Assay (CellTiter-Glo, CTG), H1299 p53 R273H (NClH1299-inducible p53 R273H); type: cell-based; conditions: Homo sapiens, NCI-H1299, 120 h, CellTiter-Glo, 5 days
# Summary of the method: as §1
# p53 Y220C = p53 Y220C (Homo sapiens, UniProt P04637, Y220C); experiment: Luciferase Reporter Assay (Luc), p53 response element, NClH1299 cells with inducible p53 Y220C; type: cell-based; conditions: luciferase reporter, NClH1299 inducible p53 Y220C, 6 hour; for AC50: read-out: Luc P53 Y220C AC50
# Summary of the method: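 Cells were seeded at 5,000 per well and induced with 0.5 ug/mL doxycycline for 24 hours, then exposed to compound for 6 hours. One-Glo reagent was added, plates shaken 5 minutes at room temperature, and luminescence read immediately.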
# [3] = thermal shift, read-out: TSA P53 Y220C dTM (10 uM)
# [4] = thermal shift, read-out: TSA P53 Y220C dTM (100 uM)
# [5] = 10 uM tool compound as positive control
# [6] = p53 Y220C, read-out: TSA P53 Y220C dTM
# [7] = NClH1299-inducible p53 Y220C cells
# [8] = NClH1299-inducible p53 R273H cells
Structure (SMILES),"ΔTm at 10 µM [1, 3]","ΔTm at 100 µM [1, 4]",pIC50 (NUGC3 p53 Y220C; NUGC3 p53 Y220C),pIC50 (H1299 p53 Y220C; H1299 p53 Y220C),"pKd ([2]; SPR, kinetic KD, p53 Y220C)",pIC50 (H1299 p53 R273H; H1299 p53 R273H),Emax (p53 Y220C; [5]),AC50 (p53 Y220C),"ΔTm at 10 µM [1, 6]",pIC50 (NUGC3 p53 Y220C; NUGC3 cells),pIC50 (H1299 p53 Y220C; [7]),"pKd ([2]; SPR, p53 Y220C)",pIC50 (H1299 p53 R273H; [8]),AC50 (p53 Y220C; AC50),Emax (p53 Y220C; Emax),"ΔTm at 100 µM [1, 6]",pKd [2]
CNC(=O)c1ccc(NCC#Cc2nc3c(N[C@@H]4CCN(C)C[C@@H]4F)cc(F)cn3c2SC(F)(F)F)c(OC)c1 [Example 180],≥ 10 °C,≥ 10 °C,5.82 to 6.12,> 6.12,> 8.00,5.10 to 5.30,80 to 90%,< 750 nM,,,,,,,,,
"CNC(=O)c1ccc(NCC#Cc2nc3c(N[C@@H]4CCN(C)C[C@@H]4F)cccn3c2NC)c(OC)c1 [Example 25, 4-{[3-(8-{[(3S,4R)-3-fluoro-1-methylpiperidin-4-yl]amino}-3-(methylamino)imidazo[1,2-a]pyridin-2-yl)prop-2-yn-1-yl]amino}-3-methoxy-N-methylbenzamide]",,5 to 10 °C,< 5.52,< 5.52,6.00 to 7.00,≤ 5.00,< 70%,> 3000 nM,,,,,,,,,
CNC(=O)c1ccc(OC)c(NCC#Cc2cc3c(N[C@@H]4CCN(C)C[C@@H]4F)cccn3c2SC(F)F)c1 [Example 343],,,,,,,,,≥ 10 °C,> 6.12,> 6.12,> 8.00,≤ 5.00,< 750 nM,> 90%,,
"CNC(=O)c1ccc(OC)c(NCC#Cc2cc3c(N[C@@H]4CCNC[C@@H]4F)cccn3c2SC(F)(F)F)c1 [Example 125, 3-{[3-(8-{[(3S,4R)-3-fluoropiperidin-4-yl]amino}-3-[(trifluoromethyl)sulfanyl]indolizin-2-yl)prop-2-yn-1-yl]amino}-4-methoxy-N-methylbenzamide]",≥ 10 °C,,> 6.12,> 6.12,> 8.00,5.10 to 5.30,> 90%,< 750 nM,,,,,,,,,
CNC(=O)c1ccc(NCC#Cc2nc3c(NC4CCOCC4)cccn3c2SC(F)(F)F)c(OC)c1 [Example 241],,,,,,,,,5 to 10 °C,> 6.12,> 6.12,7.00 to 8.00,5.10 to 5.30,< 750 nM,80 to 90%,≥ 10 °C,
"CNC(=O)c1cc(NCC#Cc2cc3c(N[C@@H]4CCN(C)C[C@@H]4F)nccn3c2SC(F)(F)F)c2nccn2c1 [Example 186, 8-{[3-(1-{[(3S,4R)-3-fluoro-1-methylpiperidin-4-yl]amino}-6-[(trifluoromethyl)sulfanyl]pyrrolo[1,2-a]pyrazin-7-yl)prop-2-yn-1-yl]amino}-N-methylimidazo[1,2-a]pyridine-6-carboxamide]",≥ 10 °C,,> 6.12,> 6.12,> 8.00,≤ 5.00,> 90%,< 750 nM,,,,,,,,,
COc1ncc(C(N)=O)cc1NCC#Cc1nc2c(N[C@@H]3CCN(C)C[C@@H]3F)cccn2c1SC(F)(F)F [Example 140],≥ 10 °C,,> 6.12,> 6.12,> 8.00,> 5.30,80 to 90%,< 750 nM,,,,,,,,,
"COc1cc(S(C)(=O)=O)ccc1NCC#Cc1nc2c(NC3CCN(C(C)C)CC3)cccn2c1CC(F)(F)F [Example 9, 1-isopropyl-N-(2-{3-[(4-methanesulfonyl-2-methoxyphenyl)amino]prop-1-yn-1-yl}-3-(2,2,2-trifluoroethyl)imidazo[1,2-a]pyridin-8-yl)piperidin-4-amine]",,≥ 10 °C,5.52 to 5.82,5.52 to 5.82,7.00 to 8.00,5.10 to 5.30,70 to 80%,1500 to 3000 nM,,,,,,,,,
"COc1cc(S(C)(=O)=O)ccc1NCC#Cc1nc2c(N[C@@H]3CCNC[C@@H]3F)cccn2c1CC(F)(F)F [Example 8, (3S,4R)-3-fluoro-N-(2-{3-[(4-methanesulfonyl-2-methoxyphenyl)amino]prop-1-yn-1-yl}-3-(2,2,2-trifluoroethyl)imidazo[1,2-a]pyridin-8-yl)piperidin-4-amine]",,≥ 10 °C,5.82 to 6.12,5.82 to 6.12,> 8.00,5.10 to 5.30,70 to 80%,750 to 1500 nM,,,,,,,,,
"CCNC(=O)c1ccc(OC)c(NCC#Cc2nc3c(N[C@@H]4CCN(C)C[C@@H]4F)cccn3c2SC(F)(F)F)c1 [Example 108, N-ethyl-3-{[3-(8-{[(3S,4R)-3-fluoro-1-methylpiperidin-4-yl]amino}-3-[(trifluoromethyl)sulfanyl]imidazo[1,2-a]pyridin-2-yl)prop-2-yn-1-yl]amino}-4-methoxybenzamide]",≥ 10 °C,≥ 10 °C,> 6.12,> 6.12,> 8.00,5.00 to 5.10,80 to 90%,< 750 nM,,,,,,,,,
"COc1cc2c(cc1NCC#Cc1nc3c(N[C@@H]4CCN(C)C[C@@H]4F)cccn3c1CC(F)(F)F)CCNC2=O [Example 110, 6-{[3-(8-{[(3S,4R)-3-fluoro-1-methylpiperidin-4-yl]amino}-3-(2,2,2-trifluoroethyl)imidazo[1,2-a]pyridin-2-yl)prop-2-yn-1-yl]amino}-7-methoxy-3,4-dihydro-2H-isoquinolin-1-one]",,≥ 10 °C,> 6.12,> 6.12,> 8.00,5.10 to 5.30,80 to 90%,< 750 nM,,,,,,,,,
CNC(=O)c1ccc(OC)c(NCC#Cc2nn3c(N[C@H]4C[C@@H]5CC[C@H]([C@H]4F)N5C)cccc3c2SC(F)(F)F)c1 [Example 288],,,,,,,,,≥ 10 °C,> 6.12,> 6.12,> 8.00,> 5.30,< 750 nM,80 to 90%,,
CNC(=O)c1cncc(NCC#Cc2nc3c(N[C@@H]4CCN(C)C[C@@H]4F)cccn3c2SC(F)(F)F)c1 [Example 142],≥ 10 °C,≥ 10 °C,> 6.12,5.82 to 6.12,> 8.00,≤ 5.00,< 70%,750 to 1500 nM,,,,,,,,,
CNC(=O)c1ccc(OC)c(NCC#Cc2nc3c(N[C@@H]4CCN(C)C[C@@H]4F)cccn3c2CC(F)(F)F)n1 [Example 213],≥ 10 °C,≥ 10 °C,> 6.12,> 6.12,,≤ 5.00,70 to 80%,< 750 nM,,,,,,,,,> 8.00
CNC(=O)c1cc(NCC#Cc2nc3c(N[C@@H]4CCN(C)C[C@@H]4F)cccn3c2SC(F)(F)F)c2nccn2c1 [Example 277],,,,,,,,,≥ 10 °C,> 6.12,> 6.12,> 8.00,≤ 5.00,< 750 nM,> 90%,,
CNC(=O)c1ccc(Cl)c(NCC#Cc2nc3c(N[C@@H]4CCN(C)C[C@@H]4F)cccn3c2SC(F)(F)F)c1 [Example 312],,,,,,,,,≥ 10 °C,> 6.12,> 6.12,> 8.00,5.10 to 5.30,< 750 nM,> 90%,,
CCNC(=O)c1ccc(OC)c(NCC#Cc2nn3c(N[C@@H]4CCN(C)C[C@@H]4F)cccc3c2SC(F)F)c1 [Example 318],,,,,,,,,≥ 10 °C,> 6.12,> 6.12,> 8.00,5.10 to 5.30,< 750 nM,80 to 90%,,
"CNC(=O)c1ccc(NCC#Cc2nc3c(N[C@@H]4CCN(C)C[C@@H]4F)nccn3c2SC(F)(F)F)c(OC)c1 [Example 206, 4-{[3-(8-{[(3S,4R)-3-fluoro-1-methylpiperidin-4-yl]amino}-3-[(trifluoromethyl)sulfanyl]imidazo[1,2-a]pyrazin-2-yl)prop-2-yn-1-yl]amino}-3-methoxy-N-methylbenzamide]",≥ 10 °C,≥ 10 °C,> 6.12,> 6.12,> 8.00,≤ 5.00,> 90%,< 750 nM,,,,,,,,,
